Laboratory results as given in patent US8314150B2, “Kinase protein binding inhibitors” (priority 2008, dated 2012).

What was measured:
[1] = test system: ERK1/2 phosphorylation; assay: ERK1/2 phosphorylation in pancreatic cancer cells; type: cell-based, human; settings: dose dependent
Description: (§1) Cell Viability Assay—The Cells were treated with peptides for 24 hours at different peptide concentrations. The 3-(4,5-dimethylthiazol-2-yl)-5-(3-carboxymethoxyphenyl)-2-(4-sulfophenyl)-2H-tetrazolium compound from Promega Viability kit (Madison, Ill.) was added, and the cells were incubated at 37° C. for 1-2 hours. The optical density on 96-plate was analyzed with a microplate reader at 490 nm to determine cell viability. In addition, cells were stained with trypan blue after 24 hours of treatment with Y15 and the percent of cells that stained positive were determined with a hemacytometer. […] Then 2% SDS was added to the dried plated and OD at 590 nm was measured for detecting cell adhesion. […] Protein concentrations were determined using a Bio-Rad Kit. The boiled samples were loaded on Ready SDS-10% PAGE gels (Bio Rad, Inc) and used for Western blot analysis with the protein-specific antibody. […] Detachment Assay—Cells were plated with and without inhibitors for 24 hours, and detached and attached cells were counted in a hemocytometer. We calculated the percent of detachment by dividing the number of detached cells by the total number of cells. The percent of detached cells was calculated in three independent experiments. […] For each experiment 300 cells per treatment were counted. […]

[2] = test system: BT474 cells; assay: Detachment assay, BT474; type: cell-based; settings: 24 hours
Description: (§2) Cell Viability Assay—The Cells were treated with peptides for 24 hours at different peptide concentrations. The 3-(4,5-dimethylthiazol-2-yl)-5-(3-carboxymethoxyphenyl)-2-(4-sulfophenyl)-2H-tetrazolium compound from Promega Viability kit (Madison, Ill.) was added, and the cells were incubated at 37° C. for 1-2 hours. The optical density on 96-plate was analyzed with a microplate reader at 490 nm to determine cell viability. In addition, cells were stained with trypan blue after 24 hours of treatment with Y15 and the percent of cells that stained positive were determined with a hemacytometer. Cell adhesion assay—The poly-L-Lysine or Collagen (5 μg/ml) coated 96-well plates were blocked with the blocking buffer (medium with 0.5% BSA) for 1 hour at 37 C. The cells were pre-treated with drugs for 3 hours and plated for adhesion at 4×10^5 cells. Cells were incubated at 37 C for 1 hour, fixed in 3.7% formaldehyde, washed in 0.1% BSA in PBS and stained with crystal violet (5 mg/ml in 2% ethanol) for 10 minutes. Then 2% SDS was added to the dried plated and OD at 590 nm was measured for detecting cell adhesion. Western Blotting—Cells or homogenized tumor samples were washed twice with cold 1×PBS and lysed on ice for 30 minutes in a buffer containing: 50 mM Tris-HCl (pH 7.5), 150 mM NaCl, 1% Triton-X, 0.5% NaDOC, 0.1% SDS, 5 mM EDTA, 50 mM NaF, 1 mM NaVO3, 10% glycerol and protease inhibitors: 10 μg/ml leupeptin, 10 μg/ml PMSF and 1 μg/ml aprotinin. The lysates were cleared by centrifugation at 10,000 rpm for 30 minutes at 4° C. Protein concentrations were determined using a Bio-Rad Kit. The boiled samples were loaded on Ready SDS-10% PAGE gels (Bio Rad, Inc) and used for Western blot analysis with the protein-specific antibody. Immunoblots were developed with chemiluminescence Renaissance reagent (NEN Life Science Products, Inc). Immunoprecipitation. Immunoprecipitation was performed according to the standard protocol. In brief, the pre-cleared lysates with equal amount of protein were incubated with 1 μg of primary antibody and 30 μl A/G agarose beads overnight at 4° C. The precipitates were washed with lysis buffer three times and re-suspended in 2× Laemmli buffer. The boiled samples were used for Western blotting, as described above. Detachment Assay—Cells were plated with and without inhibitors for 24 hours, and detached and attached cells were counted in a hemocytometer. We calculated the percent of detachment by dividing the number of detached cells by the total number of cells. The percent of detached cells was calculated in three independent experiments. Apoptosis Assay. […] The percent of apoptotic cells was calculated as a ratio of apoptotic detached cells divided by the total number of cells in three independent experiments in several fields with the fluorescent microscope. For each experiment 300 cells per treatment were counted. In vitro Kinase Assay—10 μCi of [γ-^32P]-ATP in a kinase buffer (20 mM HEPES, pH 7.4, 5 mM MgCl2, 5 mM MnCl2, 0.1 mM Na3VO4 with 0.1 μg of purified FAK protein were incubated in a kinase buffer with 10 μCi of [γ-^32P]-ATP. The kinase reaction was performed for 5 minutes at room temperature and stopped by addition of 2× Laemmli buffer. Proteins were separated on a Ready SDS-10% PAGE gel, and the phosphorylated enolase was visualized by autoradiography. KinaseProfiler screening—Kinase specificity screening was performed with KinaseProfiler™ Service (Millipore) available on http://www.millipore.com/drugdiscovery/dd3/KinaseProfiler. […]

[3] = test system: FAK-Y397 phosphorylation; assay: FAK-Y397 levels in Panc-1 tumors by Western blotting; type: in vivo, mice; settings: 30 mg/kg, day 36, vs PBS
Description: as §1

[4] = test system: Y118-paxillin phosphorylation; assay: Western blotting Y118-paxillin, BT474 cells; type: cell-based; settings: 100 μM, 24 hours
Description: as §1

[5] = target: T1, FAK (Homo sapiens, UniProt Q05397); assay: In vitro kinase assay with purified recombinant FAK; type: biochemical; settings: doses 1-100 μM tested
T1 construct: made in house; host or cells: Baculovirus system
Description: as §1

[6] = test system: pancreatic tumor cells; assay: Cell adhesion assay on collagen-coated plates, pancreatic tumor cells; type: cell-based, human
Description: as §1

[7] = test system: paxillin phosphorylation; assay: Western blotting p-paxillin, Panc-1 cells; type: cell-based, human; settings: 24 hours
Description: as §1

[8] = test system: VEGFR-3 phosphorylation; assay: Phosphorylation of VEGFR-3 in cells; type: cell-based; settings: not shown
Description: as §1

[9] = test system: BT474 breast cancer cells; assay: BT474 subcutaneous tumor growth in nude mice; type: in vivo
Description: as §2, with “Western Blotting—Cells or homogenized tumor samples were washed twice with cold 1×PBS and lysed on ice for 30 minutes in a buffer containing: 50 mM Tris-HCl (pH 7.5), 150 mM NaCl, 1% Triton-X, 0.5% NaDOC, 0.1% SDS, 5 mM EDTA, 50 mM NaF, 1 mM NaVO3, 10% glycerol and protease inhibitors: 10 μg/ml leupeptin, 10 μg/ml PMSF and 1 μg/ml aprotinin. The lysates were cleared by centrifugation at 10,000 rpm for 30 minutes at 4° C.” left out, “Immunoblots were developed with chemiluminescence Renaissance reagent (NEN Life Science Products, Inc). Immunoprecipitation. Immunoprecipitation was performed according to the standard protocol. In brief, the pre-cleared lysates with equal amount of protein were incubated with 1 μg of primary antibody and 30 μl A/G agarose beads overnight at 4° C. The precipitates were washed with lysis buffer three times and re-suspended in 2× Laemmli buffer. The boiled samples were used for Western blotting, as described above.” left out, “experiments.” for “experiments. Apoptosis Assay.”

[10] = test system: total FAK phosphorylation; assay: FAK immunoprecipitation and Western blotting with P-tyrosine antibody, BT474; type: cell-based; settings: IP with FAK antibody
Description: as §1

[11] = test system: Y397 phosphorylation of FAK; assay: Western blotting with Y397 antibody, time course in pancreatic tumor cells; type: cell-based, human; settings: 100 μM
Description: as §1

T1 sequence (Q05397 whole entry): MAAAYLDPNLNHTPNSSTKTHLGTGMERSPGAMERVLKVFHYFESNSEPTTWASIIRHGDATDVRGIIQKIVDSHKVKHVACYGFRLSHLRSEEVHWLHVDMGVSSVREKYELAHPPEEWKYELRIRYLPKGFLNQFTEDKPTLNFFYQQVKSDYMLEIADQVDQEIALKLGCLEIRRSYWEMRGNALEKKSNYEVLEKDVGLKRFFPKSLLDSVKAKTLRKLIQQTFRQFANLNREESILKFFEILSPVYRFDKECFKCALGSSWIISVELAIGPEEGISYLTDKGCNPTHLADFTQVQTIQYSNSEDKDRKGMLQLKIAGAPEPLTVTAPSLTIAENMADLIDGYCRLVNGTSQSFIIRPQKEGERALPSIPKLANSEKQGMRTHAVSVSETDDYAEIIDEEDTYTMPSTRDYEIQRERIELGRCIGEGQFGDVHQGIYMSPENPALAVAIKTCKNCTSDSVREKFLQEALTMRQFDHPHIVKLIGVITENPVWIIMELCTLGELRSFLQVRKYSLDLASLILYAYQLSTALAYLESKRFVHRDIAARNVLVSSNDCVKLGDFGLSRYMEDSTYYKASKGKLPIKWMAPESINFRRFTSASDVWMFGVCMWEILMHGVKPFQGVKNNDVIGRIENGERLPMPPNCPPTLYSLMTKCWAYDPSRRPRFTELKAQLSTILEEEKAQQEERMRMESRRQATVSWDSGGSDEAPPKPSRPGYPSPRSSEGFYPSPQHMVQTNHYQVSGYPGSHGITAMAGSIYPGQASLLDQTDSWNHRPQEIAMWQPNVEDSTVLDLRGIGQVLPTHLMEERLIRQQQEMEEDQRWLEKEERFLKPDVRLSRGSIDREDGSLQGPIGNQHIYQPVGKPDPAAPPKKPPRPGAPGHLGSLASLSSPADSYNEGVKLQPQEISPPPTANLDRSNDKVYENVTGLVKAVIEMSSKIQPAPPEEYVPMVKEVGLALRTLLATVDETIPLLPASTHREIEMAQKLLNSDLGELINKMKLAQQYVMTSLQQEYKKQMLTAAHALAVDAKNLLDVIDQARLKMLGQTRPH

Cl.Cl.Cl.Cl.Nc1cc(N)c(N)cc1N [Y15, 1,2,4,5-benzenetetraamine tetrahydrochloride]
p-ERK [1]: down regulated | detachment ([2]; 10 μM): 8% | detachment ([2]; 50 μM): 38% | detachment ([2]; 100 μM): 58% | Y397 phosphorylation in tumors [3]: lower levels of Y397 phosphorylation | phosphorylation of Y118-paxillin [4]: inhibited | dose from which FAK autophosphorylation activity was directly blocked [5]: 1 | cell adhesion ([6]; 50 μM): decreased adhesion in a similar fashion to 50 μM of TAE226 | dose from which cell adhesion was significantly decreased ([6]; collagen-coated plates): 10 µM | phosphorylation of FAK downstream substrate paxillin [7]: blocked | phosphorylation of VEGFR-3 [8]: did not inhibit | tumor growth ([9]; 30 mg/kg IP, 5 days/week): significantly blocked tumor growth | inhibition of tumor growth ([9]; 30 mg/kg, alone): > 74% | tumor volume ([9]; 30 mg/kg, day 23, vs untreated): significantly less than in untreated samples | tumor weight ([9]; 30 mg/kg, day 23, vs untreated mice): significantly reduced tumor weight | total FAK phosphorylation (P-tyrosine) [10]: blocked total phosphorylation of FAK | treatment time enough to completely block Y397-phosphorylation [11]: 24 h
